US20230152324A1, “TUMOR-INTRINSIC NLRP3 INFLAMMASOME SIGNALING PATHWAY AS A GENETIC AND FUNCTIONAL BIOMARKER FOR IMMUNOTHERAPY RESPONSE” (Duke University, priority 2021, published 2023)

Tested on: mice bearing BRAF^V600EPTEN^−/− melanomas
Assay: Lung fibronectin expression (qrt-PCR, IHC) in BRAFV600EPTEN−/− melanoma-bearing mice
Format: in vivo, mouse
Details: anti-PD-1 vs anti-PD-1/Wnti treated tumor-bearing mice
From the text: Prior studies have shown that the arrival of […] (HPC) expressing vascular endothelial growth factor receptor-1 (VEGFR1) in the lung as well as increased fibronectin expression by local fibroblasts contribute to the formation of a pre-metastatic niche that subsequently supports metastatic progression (35). Using multi-parameter flow cytometry, we indeed observed an increase in a c-kit^+CD133^+CD34^+VEGFR1^+ HPC (VEGFR1^+ HPC) population in mice harboring BRAF^V600EPTEN^−/− melanomas relative to non-tumor-bearing controls. […]
Small representative tissue specimens were harvested from tumors and lungs and stored in RNAlater at −80° C. […] Total RNA was isolated by RNeasy Plus Mini Kit (Qiagen, 74134) and RNA was quantified by NanoDrop. […] All data were normalized to Actb expression and relative gene expression was quantitated based on the 2ΔΔCt method. Relative mRNA levels of the following genes were measured: Cxcl5, Cxcl1, Cxcl2, Trp2, Csf3, Il1b, Fn1, Tgfb, Tgfbr2, Spp1, and Hsp70.
Paraffin-Sections (5-μm) from primary melanomas and lung tissues were processed using standard protocols for immunohistochemistry (IHC) and immunofluorescence (IF) staining. […] PMN-MDSC quantitation by Ly6G-staining, and CD8^+ T cell quantitation by CD8a-staining were performed at 20× magnification and 6-8 random fields were averaged per section over 3-4 sections per specimen. […]

SMILES: Cn1c(=O)c2c(ncn2CC(=O)Nc2ccc(-c3ccccc3)nn2)n(C)c1=O [ETC-159]
- tumor-dependent upregulation of fibronectin expression levels in the lungs: reversed
